Earlier results as cited in PMC7904743, “WIDOCK: a reactive docking protocol for virtual screening of covalent inhibitors” (Journal of Computer-Aided Molecular Design, 2021).
Read-outs that look alike come from different tables or passages of the source.

Legend:
[1] = thiol reactivity, cited from earlier work
[2] = test system: NUDT7; conditions: protein labeling at 200 μM; experimental actives if % labeling higher than 50%; cited from earlier work
[3] = test system: OTUB2; conditions: experimental actives if % labeling higher than 50%, cited from earlier work
[4] = natural log of average rate constant k
[5] = natural logarithm of average rate constant
[6] = natural log of average kinetic rate constant
[7] = natural log of average rate constant

Cc1cc(NC(=O)CCl)ccc1N1CCCC1 [PCM-0102175, Cc1cc(NC(=O)CCl)ccc1N1CCCC1]
ln(avg k) [1, 4]: -15.490
ln(avg k) [1, 5]: -15.490
NUDT7 % labeling [2]: 13%
OTUB2 % labeling [3]: 39%

CC1CCCCC1N(C)C(=O)CCl (stereo not shown) [PCM-0103026, CC1CCCCC1N(C)C(=O)CCl]
ln(avg k) [1, 6]: -15.777
ln(avg k) [1, 7]: -15.777
NUDT7 % labeling [2]: 12%
OTUB2 % labeling ([3]; OTUB2 protein labeling): 0%

O=C(CCl)Nc1ccc(N2CCCC2=O)cc1 [PCM-0102915, O=C(CCl)Nc1ccc(N2CCCC2=O)cc1]
ln(avg k) [1, 6]: -15.819
ln(avg k) [1, 7]: -15.819
NUDT7 % labeling [2]: 0%
OTUB2 % labeling ([3]; OTUB2 protein labeling): 49%

O=C(CCl)N=c1sccn1Cc1ccccc1 [PCM-0102469, O=C(CCl)N=c1sccn1Cc1ccccc1]
ln(avg k) [1, 4]: -15.583
ln(avg k) [1, 5]: -15.583
NUDT7 % labeling [2]: 0%
OTUB2 % labeling [3]: 11%

CC(c1ccccc1)N1CCN(C(=O)CCl)CC1 (stereo not shown) [PCM-0102710, CC(c1ccccc1)N1CCN(C(=O)CCl)CC1]
ln(avg k) [1, 7]: -15.723
ln(avg k) [1, 5]: -15.723
NUDT7 % labeling [2]: 0%
OTUB2 % labeling [3]: 12%

Cc1nc(-c2cccc(NC(=O)CCl)c2)cs1 [PCM-0102262, Cc1nc(-c2cccc(NC(=O)CCl)c2)cs1]
ln(avg k) [1, 4]: -15.670
ln(avg k) [1, 5]: -15.670
NUDT7 % labeling [2]: 0%
OTUB2 % labeling [3]: 63%

CCNC(=O)NC(=O)CCl [PCM-0102654, CCNC(=O)NC(=O)CCl]
ln(avg k) [1, 4]: -16.588
ln(avg k) [1, 5]: -16.588
NUDT7 % labeling [2]: 0%
OTUB2 % labeling [3]: 0%

O=C(CCl)Nc1cccc2ncccc12 [PCM-0102097, O=C(CCl)Nc1cccc2ncccc12]
ln(avg k) [1, 4]: -16.130
ln(avg k) [1, 5]: -16.130
NUDT7 % labeling [2]: 0%
OTUB2 % labeling [3]: 42%

O=C(CCl)Nc1ccc(OC(F)(F)F)cc1 [PCM-0102276, O=C(CCl)Nc1ccc(OC(F)(F)F)cc1]
ln(avg k) [1, 4]: -15.893
ln(avg k) [1, 5]: -15.893
NUDT7 % labeling [2]: 24%
OTUB2 % labeling [3]: 36%

O=C(CCl)N1CCN(c2ccc(F)cc2)CC1 [PCM-0102905, O=C(CCl)N1CCN(c2ccc(F)cc2)CC1]
ln(avg k) [1, 6]: -15.525
ln(avg k) [1, 7]: -15.525
NUDT7 % labeling [2]: 10%
OTUB2 % labeling ([3]; OTUB2 protein labeling): 7%

O=C(CCl)NNC(=O)c1ccc(F)cc1 [PCM-0102430, O=C(CCl)NNC(=O)c1ccc(F)cc1]
ln(avg k) [1, 4]: -17.459
ln(avg k) [1, 5]: -17.459
NUDT7 % labeling [2]: 0%
OTUB2 % labeling [3]: 31%

O=C(CCl)Nc1ccccc1Cl [PCM-0102152, O=C(CCl)Nc1ccccc1Cl]
ln(avg k) [1, 4]: -16.303
ln(avg k) [1, 5]: -16.303
NUDT7 % labeling [2]: 0%
OTUB2 % labeling [3]: 20%

O=C(CCl)Nc1ccc2c(c1)OC(F)(F)O2 [PCM-0102738, O=C(CCl)Nc1ccc2c(c1)OC(F)(F)O2]
ln(avg k) [1, 6]: -15.810
ln(avg k) [1, 7]: -15.810
NUDT7 % labeling [2]: 0%
OTUB2 % labeling ([3]; OTUB2 protein labeling): 41%

O=C(CCl)N1CCC(Cc2ccccc2)CC1 [PCM-0102492, O=C(CCl)N1CCC(Cc2ccccc2)CC1]
ln(avg k) [1, 4]: -16.081
ln(avg k) [1, 5]: -16.081
NUDT7 % labeling [2]: 18%
OTUB2 % labeling [3]: 18%

O=C(CCl)Nc1cccc(Cl)c1 [PCM-0102198, O=C(CCl)Nc1cccc(Cl)c1]
ln(avg k) [1, 4]: -16.004
ln(avg k) [1, 5]: -16.004
NUDT7 % labeling [2]: 28%
OTUB2 % labeling [3]: 37%

O=C(CCl)Nc1ccc2c(c1)OC1(CCCCC1)O2 [PCM-0102104, O=C(CCl)Nc1ccc2c(c1)OC1(CCCCC1)O2]
ln(avg k) [1, 4]: -15.658
ln(avg k) [1, 5]: -15.658
NUDT7 % labeling [2]: 8%
OTUB2 % labeling [3]: 47%

Cc1ccc(C)c(S(=O)(=O)N2CCN(C(=O)CCl)CC2)c1 [PCM-0102353, Cc1ccc(C)c(S(=O)(=O)N2CCN(C(=O)CCl)CC2)c1]
ln(avg k) [1, 4]: -15.325
ln(avg k) [1, 5]: -15.325
NUDT7 % labeling [2]: 19%
OTUB2 % labeling [3]: 6%

COCC(=O)NNC(=O)CCl [PCM-0103070, COCC(=O)NNC(=O)CCl]
ln(avg k) [1, 6]: -17.475
ln(avg k) [1, 7]: -17.475
NUDT7 % labeling [2]: 0%
OTUB2 % labeling ([3]; OTUB2 protein labeling): 0%

COC(=O)c1ccccc1N(C)C(=O)CCl [PCM-0102589, COC(=O)c1ccccc1N(C)C(=O)CCl]
ln(avg k) [1, 4]: -16.323
ln(avg k) [1, 5]: -16.323
NUDT7 % labeling [2]: 15%
OTUB2 % labeling [3]: 0%

O=C(CCl)N1CCN(S(=O)(=O)c2ccc(Cl)s2)CC1 [PCM-0102121, O=C(CCl)N1CCN(S(=O)(=O)c2ccc(Cl)s2)CC1]
ln(avg k) [1, 4]: -15.220
ln(avg k) [1, 5]: -15.220
NUDT7 % labeling [2]: 15%
OTUB2 % labeling [3]: 0%

CN(Cc1ccco1)C(=O)CCl [PCM-0102672, CN(Cc1ccco1)C(=O)CCl]
ln(avg k) [1, 4]: -15.763
ln(avg k) [1, 5]: -15.763
NUDT7 % labeling [2]: 10%
OTUB2 % labeling [3]: 0%

CC1CCCC(NC(=O)CCl)C1C (stereo not shown) [PCM-0102663, CC1CCCC(NC(=O)CCl)C1C]
ln(avg k) [1, 4]: -16.862
ln(avg k) [1, 5]: -16.862
NUDT7 % labeling [2]: 0%
OTUB2 % labeling [3]: 29%

CC(NC(=O)CCl)c1cccs1 (stereo not shown) [PCM-0102180, CC(NC(=O)CCl)c1cccs1]
ln(avg k) [1, 4]: -16.321
ln(avg k) [1, 5]: -16.321
NUDT7 % labeling [2]: 16%
OTUB2 % labeling [3]: 55%

CN(Cc1ccccc1F)C(=O)CCl [PCM-0102787, CN(Cc1ccccc1F)C(=O)CCl]
ln(avg k) [1, 6]: -16.194
ln(avg k) [1, 7]: -16.194
NUDT7 % labeling [2]: 0%
OTUB2 % labeling ([3]; OTUB2 protein labeling): 0%

O=C(CCl)N1CCN(S(=O)(=O)c2ccc(Cl)cc2)CC1 [PCM-0102704, O=C(CCl)N1CCN(S(=O)(=O)c2ccc(Cl)cc2)CC1]
ln(avg k) [1, 7]: -15.137
ln(avg k) [1, 5]: -15.137
NUDT7 % labeling [2]: 25%
OTUB2 % labeling [3]: 0%

CC(NC(=O)CCl)C(=O)N1CCCCC1 (stereo not shown) [PCM-0102598, CC(NC(=O)CCl)C(=O)N1CCCCC1]
ln(avg k) [1, 4]: -16.794
ln(avg k) [1, 5]: -16.794
NUDT7 % labeling [2]: 0%
OTUB2 % labeling [3]: 0%

CN(C(=O)CCl)C1CCCc2ccccc21 (stereo not shown) [PCM-0102703, CN(C(=O)CCl)C1CCCc2ccccc21]
ln(avg k) [1, 7]: -15.771
ln(avg k) [1, 5]: -15.771
NUDT7 % labeling [2]: 30%
OTUB2 % labeling [3]: 0%

CC(=O)Nc1ccc(NC(=O)CCl)cc1 [PCM-0102114, CC(=O)Nc1ccc(NC(=O)CCl)cc1]
ln(avg k) [1, 4]: -16.157
ln(avg k) [1, 5]: -16.157
NUDT7 % labeling [2]: 0%
OTUB2 % labeling [3]: 0%

C#CCN1CCN(C(=O)CCl)CC1 [PCM-0102811, C#CCN1CCN(C(=O)CCl)CC1]
ln(avg k) [1, 6]: -15.973
ln(avg k) [1, 7]: -15.973
NUDT7 % labeling [2]: 0%
OTUB2 % labeling ([3]; OTUB2 protein labeling): 0%

CN(C)C(=O)CNC(=O)CCl [PCM-0102365, CN(C)C(=O)CNC(=O)CCl]
ln(avg k) [1, 4]: -17.142
ln(avg k) [1, 5]: -17.142
NUDT7 % labeling [2]: 0%
OTUB2 % labeling [3]: 0%

CC(NC(=O)CCl)c1ccc2c(c1)OCO2 (stereo not shown) [PCM-0103030, CC(NC(=O)CCl)c1ccc2c(c1)OCO2]
ln(avg k) [1, 6]: -16.554
ln(avg k) [1, 7]: -16.554
NUDT7 % labeling [2]: 12%
OTUB2 % labeling ([3]; OTUB2 protein labeling): 28%

CC(NC(=O)CCl)c1ccccc1Cl (stereo not shown) [PCM-0102110, CC(NC(=O)CCl)c1ccccc1Cl]
ln(avg k) [1, 4]: -16.453
ln(avg k) [1, 5]: -16.453
NUDT7 % labeling [2]: 0%
OTUB2 % labeling [3]: 25%

Cc1ccc(NC(=O)CCl)cc1Br [PCM-0102955, Cc1ccc(NC(=O)CCl)cc1Br]
ln(avg k) [1, 6]: -16.336
ln(avg k) [1, 7]: -16.336
NUDT7 % labeling [2]: 27%
OTUB2 % labeling ([3]; OTUB2 protein labeling): 14%

Cc1csc(N(C(=O)CCl)c2ccccc2)n1 [PCM-0102265, Cc1csc(N(C(=O)CCl)c2ccccc2)n1]
ln(avg k) [1, 4]: -15.232
ln(avg k) [1, 5]: -15.232
NUDT7 % labeling [2]: 19%
OTUB2 % labeling [3]: 6%

O=C(CCl)Nc1ccccc1C(F)(F)F [PCM-0102170, O=C(CCl)Nc1ccccc1C(F)(F)F]
ln(avg k) [1, 4]: -16.769
ln(avg k) [1, 5]: -16.769
NUDT7 % labeling [2]: 0%
OTUB2 % labeling [3]: 0%

Cc1ccc(-c2cc(NC(=O)CCl)on2)cc1 [PCM-0102382, Cc1ccc(-c2cc(NC(=O)CCl)on2)cc1]
ln(avg k) [1, 4]: -15.819
ln(avg k) [1, 5]: -15.819
NUDT7 % labeling [2]: 81%
OTUB2 % labeling [3]: 45%

Cc1ccc(C)c(NC(=O)CCl)c1 [PCM-0102398, Cc1ccc(C)c(NC(=O)CCl)c1]
ln(avg k) [1, 4]: -16.327
ln(avg k) [1, 5]: -16.327
NUDT7 % labeling [2]: 0%
OTUB2 % labeling [3]: 0%

CN(C)C(=O)c1cccc(NC(=O)CCl)c1 [PCM-0102345, CN(C)C(=O)c1cccc(NC(=O)CCl)c1]
ln(avg k) [1, 4]: -15.488
ln(avg k) [1, 5]: -15.488
NUDT7 % labeling [2]: 10%
OTUB2 % labeling [3]: 0%

O=C(CCl)Nc1ccccc1 [PCM-0102658, O=C(CCl)Nc1ccccc1]
ln(avg k) [1, 4]: -16.281
ln(avg k) [1, 5]: -16.281
NUDT7 % labeling [2]: 0%
OTUB2 % labeling [3]: 0%

O=C(CCl)N1CCN(Cc2ccc3c(c2)OCO3)CC1 [PCM-0102397, O=C(CCl)N1CCN(Cc2ccc3c(c2)OCO3)CC1]
ln(avg k) [1, 4]: -15.445
ln(avg k) [1, 5]: -15.445
NUDT7 % labeling [2]: 0%
OTUB2 % labeling [3]: 0%

O=C(CCl)N1CCNCC1 [PCM-0102476, O=C(CCl)N1CCNCC1]
ln(avg k) [1, 4]: -17.059
ln(avg k) [1, 5]: -17.059
NUDT7 % labeling [2]: 0%
OTUB2 % labeling [3]: 0%

Cc1cc(N2CCN(C(=O)CCl)CC2)nc(C(C)C)n1 [PCM-0102638, Cc1cc(N2CCN(C(=O)CCl)CC2)nc(C(C)C)n1]
ln(avg k) [1, 4]: -16.816
ln(avg k) [1, 5]: -16.816
NUDT7 % labeling [2]: 0%
OTUB2 % labeling [3]: 0%

CC(NC(=O)CCl)c1cccc(Cl)c1 (stereo not shown) [PCM-0102190, CC(NC(=O)CCl)c1cccc(Cl)c1]
ln(avg k) [1, 4]: -16.294
ln(avg k) [1, 5]: -16.294
NUDT7 % labeling [2]: 42%
OTUB2 % labeling [3]: 37%
